In PubChem BioAssay AID1845219 (Molecular Pharmacology Branch, DTP, NCI, 2023):

Test system: SYO-1 tumor spheroids, viability % test/control
Assay: Anticancer human tumor SYO-1 cell line growth inhibition;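 also: spheroids exposed to agents for 7 days before viability read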;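 as to viability, T/C: 100% = DMSO vehicle control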
Settings: spheroids with HUVEC and MSC; for IC50: curve of first compound; for viability, T/C: stronger effect = lower value
Excerpt: Multicellular complex tumor spheroid response to DNA repair inhibitors in combination with DNA-damaging drugs
This study explores the anticancer activities of DNA-damaging drugs and inhibitors of DNA damage repair, both as single agents and in combinations. Complex tumor spheroids comprised of malignant cells, endothelial cells and mesenchymal stem cells served as an in vitro model for human solid tumors. This model system incorporates physiologically relevant features and patient-derived or established malignant cell lines with clinically relevant genetic alterations from many tumor types. Twenty-six patient-derived or established malignant cell lines were evaluated representing sarcoma, melanoma, small cell lung cancer (SCLC), non-small cell lung cancer (NSCLC), as well as bladder, ovarian and pancreatic cancers. The concentration ranges selected for each drug and investigational agent were based upon clinically achievable concentrations if the clinical Cmax of the agent was known.
Compounds. The drugs and compounds olaparib (NSC753686), talazoparib (NSC767125), berzosertib (NSC777718), elimusertib (NSC800525), nedisertib (NSC802822), VX-984 (NSC792969), AZD-1390 (NSC803789), temozolomide (NSC362856), topotecan (NSC609699), trabectedin (NSC813783), staurosporine (NSC755774), and gemcitabine (NSC613327) were obtained from the National Cancer Institute (NCI) Developmental Therapeutics Program Chemical Repository. The FDA-approved anticancer drug set is available from the Developmental Therapeutics Program at https://dtp.cancer.gov/organization/dscb/obtaining/available_plates.htm. […] The stock solutions were prepared in dimethyl sulfoxide (DMSO, Sigma-Aldrich, St. Louis, MO, cat. D2650) at 400-fold the tested concentration and stored at -70 degrees C. Prior to their use, the stock solutions were diluted in fresh medium and the final DMSO concentration in the assay was 0.25% (v/v). All drugs and investigational agents were tested over a range starting from a high concentration at or near the clinical Cmax and decreasing in half-log increments. If the clinical Cmax for an agent had not been determined, the highest concentration tested was 10 microM.
Cell Lines. The patient-derived cancer cell (PDC) lines: 156681-154-R-J1-PDC, 283228-195-R-J1-PDC, 287954-098-R-J1-PDC, 292921-168-R-J2-PDC, 349418-098-R-PDC, 425362-245-T-J1-PDC, 556581-035-R-J1-PDC, and BL0293-F563-PDC were received from the NCI Patient-Derived Models Repository (PDMR, https://pdmr.cancer.gov). The established cell lines HS-SY-2 (RRID:CVCL_8719), MPNST, and SYO-1 (RRID:CVCL_7146) were obtained from the Sloan Kettering Institute. The alveolar soft parts sarcoma cell line ASPS-1 (RRID:CVCL_S738) was established at the NCI and grown from internal seed stocks. The following established cell lines were purchased from the American Type Culture Collection (ATCC, Manassas, VA): G-401 (ATCC, cat. CRL-1441, RRID:CVCL_0270), SW982 (ATCC, cat. HTB-93, RRID:CVCL_1734), VA-ES-BJ (ATCC, cat. CRL-2138, RRID:CVCL_1785), NCI-H719 (ATCC, cat. CRL-5837, RRID:CVCL_1582), NCI-H196 (ATCC, cat. CRL-5823, RRID:CVCL_1509), NCI-H841 (ATCC, cat. CRL-5845, RRID:CVCL_1595), NCI-H1618 (ATCC, cat. CRL-5879, RRID:CVCL_1480), NCI-H1876 (ATCC, cat. CRL-5902, RRID:CVCL_1503), DMS 114 (ATCC, cat. CRL-2066; RRID:CVCL_1174), NCI-H211 (ATCC, cat. CRL-5824; RRID:CVCL_1529), and SW 1271 (ATCC, cat. CRL-2177, RRID:CVCL_1716). The small cell lung cancer cell line COR-L88 was purchased from Sigma-Aldrich (cat. 92031917-1VL, RRID:CVCL_1141). The non-small cell lung cancer cell lines NCI-H226 (RRID:CVCL_1544) and NCI-H322M (RRID:CVCL_1557) were established at the NCI and grown from internal seed stocks. Pooled donor human umbilical vein endothelial cells (HUVEC, Lonza, cat. CC-2519) and human mesenchymal stem cells (hMSC, Lonza, cat. PT-2501) were purchased from Lonza (Walkersville, MD).
Cell Culture. All cells were maintained in an incubator at 37 degrees C and 5% CO2 with 95% humidity. […]

[1] = second compound 0.003 µM, first compound 0.00949 µM
[2] = second compound 0.003 µM, first compound 0.03 µM
[3] = second compound 0.003 µM, first compound 0.0949 µM
[4] = second compound 0.003 µM, first compound 0.3 µM
[5] = second compound 0.003 µM, first compound 0.949 µM
[6] = second compound 0.003 µM, first compound 3 µM
[7] = second compound 0.00949 µM, first compound 0.00949 µM
[8] = second compound 0.00949 µM, first compound 0.03 µM
[9] = second compound 0.00949 µM, first compound 0.0949 µM
[10] = second compound 0.00949 µM, first compound 0.3 µM
[11] = second compound 0.00949 µM, first compound 0.949 µM
[12] = second compound 0.00949 µM, first compound 3 µM
[13] = second compound 0.03 µM, first compound 0.00949 µM
[14] = second compound 0.03 µM, first compound 0.03 µM
[15] = second compound 0.03 µM, first compound 0.0949 µM
[16] = second compound 0.03 µM, first compound 0.3 µM
[17] = second compound 0.03 µM, first compound 0.949 µM
[18] = second compound 0.03 µM, first compound 3 µM
[19] = second compound 0.0949 µM, first compound 0.00949 µM
[20] = second compound 0.0949 µM, first compound 0.03 µM
[21] = second compound 0.0949 µM, first compound 0.0949 µM
[22] = second compound 0.0949 µM, first compound 0.3 µM
[23] = second compound 0.0949 µM, first compound 0.949 µM
[24] = second compound 0.0949 µM, first compound 3 µM
[25] = second compound 0.3 µM, first compound 0.00949 µM
[26] = second compound 0.3 µM, first compound 0.03 µM
[27] = second compound 0.3 µM, first compound 0.0949 µM
[28] = second compound 0.3 µM, first compound 0.3 µM
[29] = second compound 0.3 µM, first compound 0.949 µM
[30] = second compound 0.3 µM, first compound 3 µM

Structure (SMILES)	IC50 (second compound 0.003 µM) [nM]	IC50 (second compound 0.00949 µM) [nM]	IC50 (second compound 0.03 µM) [nM]	IC50 (second compound 0.0949 µM) [nM]	IC50 (second compound 0.3 µM) [nM]	viability, T/C [3] [%]	viability, T/C [4] [%]	viability, T/C [5] [%]	viability, T/C [6] [%]	viability, T/C [9] [%]	viability, T/C [10] [%]	viability, T/C [11] [%]	viability, T/C [12] [%]	viability, T/C [15] [%]	viability, T/C [16] [%]	viability, T/C [17] [%]	viability, T/C [18] [%]	viability, T/C [21] [%]	viability, T/C [22] [%]	viability, T/C [23] [%]	other results
CNCc1ccc(-c2cc(-c3nc(-c4ccc(S(=O)(=O)C(C)C)cc4)cnc3N)on2)cc1 + CC[C@@]1(O)C(=O)OCc2c1cc1n(c2=O)Cc2cc3c(CN(C)C)c(O)ccc3nc2-1	24.5	< 9.49	< 9.49	< 9.49	< 9.49	3.75	2.18	0.36	0.11	2.57	1.53	0.14	0.09	2.63	2.32	0.17	0.1	2.21	1.43	0.17	viability, T/C [1]: 85.4%; viability, T/C [2]: 42.5%; viability, T/C [7]: 4.64%; viability, T/C [8]: 3.26%; viability, T/C [13]: 1.95%; viability, T/C [14]: 2.01%; viability, T/C [19]: 1.79%; viability, T/C [20]: 1.82%; viability, T/C [24]: 0.11%; viability, T/C [25]: 1.93%; viability, T/C [26]: 1.65%; viability, T/C [27]: 1.95%; viability, T/C [28]: 1.63%; viability, T/C [29]: 0.24%; viability, T/C [30]: 0.17%
Cn1ncnc1[C@H]1c2n[nH]c(=O)c3cc(F)cc(c23)N[C@@H]1c1ccc(F)cc1 + CC[C@@]1(O)C(=O)OCc2c1cc1n(c2=O)Cc2cc3c(CN(C)C)c(O)ccc3nc2-1	< 9.49	< 9.49	< 9.49	< 9.49	< 9.49	1.89	1.63	1.45	1.47	1.68	1.41	1.63	1.37	1.7	1.53	1.32	1.28	1.72	1.66	1.34	viability, T/C [1]: 3.29%; viability, T/C [2]: 2.24%; viability, T/C [7]: 1.7%; viability, T/C [8]: 1.69%; viability, T/C [13]: 1.69%; viability, T/C [14]: 1.49%; viability, T/C [19]: 1.59%; viability, T/C [20]: 1.89%; viability, T/C [24]: 1.13%; viability, T/C [25]: 1.71%; viability, T/C [26]: 1.64%; viability, T/C [27]: 1.52%; viability, T/C [28]: 1.37%; viability, T/C [29]: 1.3%; viability, T/C [30]: 1.04%
O=C(c1cc(Cc2n[nH]c(=O)c3ccccc23)ccc1F)N1CCN(C(=O)C2CC2)CC1 + CC[C@@]1(O)C(=O)OCc2c1cc1n(c2=O)Cc2cc3c(CN(C)C)c(O)ccc3nc2-1	< 94.9	< 94.9	< 94.9	< 94.9	< 94.9	40.5	24.1	8.02	2.93	2.56	2.35	2.18	1.79	1.56	1.76	1.49	1.64	1.91	1.81	1.99	viability, T/C (second compound 0.003 µM, first compound 9.49 µM): 2.62%; viability, T/C (second compound 0.003 µM, first compound 30 µM): 2.56%; viability, T/C (second compound 0.00949 µM, first compound 9.49 µM): 2.63%; viability, T/C (second compound 0.00949 µM, first compound 30 µM): 2.34%; viability, T/C (second compound 0.03 µM, first compound 9.49 µM): 1.62%; viability, T/C (second compound 0.03 µM, first compound 30 µM): 1.56%; viability, T/C [24]: 1.8%; viability, T/C (second compound 0.0949 µM, first compound 9.49 µM): 1.74%; viability, T/C (second compound 0.0949 µM, first compound 30 µM): 1.82%; viability, T/C [27]: 2.04%; viability, T/C [28]: 1.92%; viability, T/C [29]: 2.02%; viability, T/C [30]: 1.92%; viability, T/C (second compound 0.3 µM, first compound 9.49 µM): 1.99%; viability, T/C (second compound 0.3 µM, first compound 30 µM): 2.21%
